A short description of series [1]: Plasma pharmacokinetics on cycle 1 day 1. It counts as in vivo. The conditions noted are these: human.
Series [2] relates to patients in the registration trial. The conditions noted are these: package insert; cited from earlier work.
The test system of series [3] is patients with relapsed/refractory AML or MDS. The conditions noted are these: days 1–5 and 8–12 in combination with bortezomib; cited from earlier work.

The text below walks through data of paper PMC10807611 (Cancer chemotherapy and pharmacology, 2023).

Turning to `O=C(/C=C/c1cccc(S(=O)(=O)Nc2ccccc2)c1)NO` [Belinostat, belinostat], in series [1] (plasma, iv, 800 mg/m2), the clearance was 643 mL/min. In addition, in series [1] (plasma, iv, 1000 mg/m2), the Tmax was determined as 0.4 h and the clearance is 657 mL/min. In addition, the “Patients with QTc prolongation, all grades” value in series [2] is reported as 11%. Also, the “Maximum tolerated dose (MTD)” value in series [3] is 1000 mg/m^2.
Consider `O=C(/C=C/c1cccc(S(=O)(=O)Nc2ccccc2)c1)NO[C@@H]1O[C@H](C(=O)O)[C@@H](O)[C@H](O)[C@H]1O` [Belinostat glucuronide, belinostat glucuronide], for which, in series [1] (in vivo, iv, 800 mg/m2), the AUCINF is 396.0 ± 151.1 (6) μM·h and the T1/2 was 3.51 ± 0.95 (6) h. Besides, in series [1] (in vivo, iv, 1000 mg/m2), the AUCINF is reported as 668.6 ± 452.2 (4) μM·h and the T1/2 is recorded as 4.41 ± 1.30 (4) h.
In the case of `C=CCn1c(=O)c2cnc(Nc3ccc(N4CCN(C)CC4)cc3)nc2n1-c1cccc(C(C)(C)O)n1` [Adavosertib, adavosertib], in series [1] (in vivo, Cmax concentrations), the Cmax is around 500 nM. The same compound returned a V/F in series [1] (in vivo, po) of 784.6 ± 204.3 L. In addition, in series [1] (in vivo, po, 225 mg), the Cl/F is 57.0 ± 13.6 L/h and the time of peak concentration (Tmax) came to 3 h. In series [1] (in vivo, po, 225 mg, AUCINF), this compound returned an AUC(0-inf) of 7.41 µM·h. The half-life in series [1] (in vivo, po, 225 mg, T1/2) was 9.7 ± 1.93 h.

What is called clearance is a measure of how efficiently the substance is removed, as volume per time. High values mean a high capacity for elimination, low ones a low capacity for elimination. For orientation: Tmax means the time from dosing to the highest level. As a reminder, the Cmax is the peak of the concentration-time curve. As usually defined, the AUC(0-inf) is the area under the concentration-time curve extrapolated to infinity. Lower therefore signals less exposure. By half-life is commonly meant the time in which the quantity being followed falls by half. High values mean slow loss, low ones fast loss.
